Consider 17 compounds from patent US20050282818A1, “Ubiquitin ligase inhibitors” (Rigel Pharmaceuticals, Inc., priority 2004, published 2005).

The target in one test is T1, TRAF6/Uev1A/Ubc13 (Homo sapiens, UniProt Q9Y4K3).
T1 sequence (Q9Y4K3 1-522): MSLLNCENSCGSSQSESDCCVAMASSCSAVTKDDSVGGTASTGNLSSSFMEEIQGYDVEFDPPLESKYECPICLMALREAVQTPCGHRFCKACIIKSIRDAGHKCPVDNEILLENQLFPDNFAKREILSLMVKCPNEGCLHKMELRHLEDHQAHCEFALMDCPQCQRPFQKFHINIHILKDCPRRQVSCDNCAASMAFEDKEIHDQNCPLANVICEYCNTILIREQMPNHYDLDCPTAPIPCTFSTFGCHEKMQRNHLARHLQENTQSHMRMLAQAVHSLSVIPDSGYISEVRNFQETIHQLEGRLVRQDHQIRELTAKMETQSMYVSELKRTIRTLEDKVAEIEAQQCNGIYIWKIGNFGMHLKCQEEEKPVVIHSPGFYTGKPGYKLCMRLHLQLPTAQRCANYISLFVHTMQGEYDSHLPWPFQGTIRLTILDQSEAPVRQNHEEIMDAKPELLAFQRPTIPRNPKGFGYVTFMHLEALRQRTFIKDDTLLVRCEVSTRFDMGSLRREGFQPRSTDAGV
Put plainly: TRAF6/Uev1A/Ubc13 plate-based ubiquitin ligase assay. The test is classed as biochemical. The gist of the method:
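Ligase activity was read as luminescence from anti-Flag/HRP detection of Flag-ubiquitin bound to casein-blocked Ni-plates alongside His-ubiquitin after a 1 h room-temperature reaction. Buffer: 62.5 mM Tris pH 7.5, 6.25 mM MgCl2, 1.0 mM DTT, 2 μM ATP; E1, Uev1a/Ubc13 and TRAF6 added last to start. IC50s derived across compound concentrations.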

The target of the next test is APC11/APC2 (Homo sapiens, UniProt Q9NYG5+Q9UJX6). Put plainly: APC-11/APC-2 ligase assay (APC auto ubiquitination). The test is classed as biochemical. The note with it: APC assay. The gist of the method: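 His-tagged APC was captured on nickel plates with human E1 (5 ng/well), UbcH5c (20 ng/well), APC (100 ng/well) and Flag-ubiquitin (100 ng/well) in a Tris pH 7.6 reaction buffer containing 2.5 mM ATP, for 1 hour at room temperature. Read-out was anti-Flag/HRP chemiluminescence. IC50 was set against a DMSO control, typically from 6 or 8 concentrations.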

The target of another test is T2, ROC1/CUL1 (Homo sapiens, UniProt P62877+Q13616).
T2 construct: made in house
Put plainly: ROC1/CUL1 ubiquitin ligase assay (SCF assay). It is filed as biochemical. The procedure: Inhibition of ubiquitin ligase activity of E1+E2+E3 was measured using the protocol as described in WO 01/75145 with E3 as the ROC1/CUL1, ROC1/CUL2, or ROC2/CUL5 complex.
The wells of nickel-substrate 96-well plates (Pierce Chemical) are blocked with 100 μl of 1 casein/phosphate buffered saline (PBS) for 1 hour at room temperature, then washed with 200 μl of PBST (0.1% Tween-20 in PBS) 3 times. To each well is added the following Flag-ubiquitin (see above) reaction solution: 62.5 mM Tris pH 7.5, 6.25 mm MgCl2, 0.75 mM DTT, 2.5 mM ATP, 2.5 mM NaF1, 2.5 nM Okadaic acid, 100 ng Flag-ubiquitin (made as described above).
The buffer solution is brought to a final volume of 80 μl with Milipore-filtered water, followed by the addition of 10 μl DMSO.
To the above solution is then added 10 μl of ubiquitination enzymes in 20 mM Tris buffer, pH 7.5, and 5% glycerol. E2-Ubch5c and E3-His ROC1/Cul1, ROC1/CUL2, and ROC2/CUL5 are made as described in WO 01/75145. E1 is obtained commercially (Affiniti Research Products, Exeter, U. K.). The following amounts of each enzyme are used for these assays: 5 ng/well of E1; […] E2; and 100 ng/well His-E3. Varying amounts of compounds according to the invention are added and the reaction allowed to proceed at room temperature for 1 hour.
Following the ubiquitination reaction, the wells are washed with 200 μl of PBST 3 times. For measurement of the enzyme-bound ubiquitin, 100 gel of Mouse anti-Flag (1:10,000) and anti-Mouse Ig-HRP (1:15, 000) in PBST are added to each well and allowed to incubate at room temperature for 1 hour. The wells are then washed with 200 μl of PBST 3 times, followed by the addition of 100 μl of luminol substrate (1/5 dilution). Luminescence for each well is then measured using a fluorimeter.
Table 2 below illustrates the inhibitory activity of the compounds of the invention determined by the TRAF6/Uev1A/Ubc13 assay as well as in the ICAM, APC and the ROC1/CUL1 Ubiquitin Ligase Assay (SCF Assay). The IC50 values were determined using a various concentrations of the compounds.

For a further test, the system named is A549 cells. The test is described as follows: Cell proliferation PAD assay, A549. It is filed as cell-based. The note with it: Homo sapiens, 3pt, 48 hours, read-out: A549 3pt. The method in brief:
(§1)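 2,000 cells/well; compound added at 24 h (duplicate, 6.3-fold series, 10 mM stock, 500× dilution into wells); 48 h, 37 °C/5% CO2. Formamide fix, DAPI stain, image-based counts of live (proliferation), apoptotic, dead cells.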

The test system of the next test is H1299 cells. Put plainly: Cell proliferation PAD assay, H1299. The note with it: Homo sapiens, NCI-H1299, 3pt, 48 hours, read-out: H1299 3pt. It is filed as cell-based. The method in brief:
as §1

Test [1] relates to ICAM-1 expression in A549 cells. The test is described as follows: ICAM assay (IL-1 induced ICAM-1/CD54 expression in A549 cells). The test is classed as cell-based, human. The note with it: Homo sapiens, A549, ICAM assay. The method in brief:
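Luminescent immunostaining (anti-CD54, then anti-mouse IgG, 1 h) quantifies ICAM-1 on A549 cells induced 4 h at 37° C by IL-1 (4 μl of 25 ng/ml added). Compound is added 1 h before the cytokine to cells plated overnight at 10,000 per well.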

SMILES strings stand for the structures.

T2 sequence (P62877 whole entry): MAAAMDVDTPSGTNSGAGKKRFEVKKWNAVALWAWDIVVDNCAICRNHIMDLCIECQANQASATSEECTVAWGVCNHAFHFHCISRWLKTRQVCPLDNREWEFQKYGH
T2 sequence (Q13616 whole entry): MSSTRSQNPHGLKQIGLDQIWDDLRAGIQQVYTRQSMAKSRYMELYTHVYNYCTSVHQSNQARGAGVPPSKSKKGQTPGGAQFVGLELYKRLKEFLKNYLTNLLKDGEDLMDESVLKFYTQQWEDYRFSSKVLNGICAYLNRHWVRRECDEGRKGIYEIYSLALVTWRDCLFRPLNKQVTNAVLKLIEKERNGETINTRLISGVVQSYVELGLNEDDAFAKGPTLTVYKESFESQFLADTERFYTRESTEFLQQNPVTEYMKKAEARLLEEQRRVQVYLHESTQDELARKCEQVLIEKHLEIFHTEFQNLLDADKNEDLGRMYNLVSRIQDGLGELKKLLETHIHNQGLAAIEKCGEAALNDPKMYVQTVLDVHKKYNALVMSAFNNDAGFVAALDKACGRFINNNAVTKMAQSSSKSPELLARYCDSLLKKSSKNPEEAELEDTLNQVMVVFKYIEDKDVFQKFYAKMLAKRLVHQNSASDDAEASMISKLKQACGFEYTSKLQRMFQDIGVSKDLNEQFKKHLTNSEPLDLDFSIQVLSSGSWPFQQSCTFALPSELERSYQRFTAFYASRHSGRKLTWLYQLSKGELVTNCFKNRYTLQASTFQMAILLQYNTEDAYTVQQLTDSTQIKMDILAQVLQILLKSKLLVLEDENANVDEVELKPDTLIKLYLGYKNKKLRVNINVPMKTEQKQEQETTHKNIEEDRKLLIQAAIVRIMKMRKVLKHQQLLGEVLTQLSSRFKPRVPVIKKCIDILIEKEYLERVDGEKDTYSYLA
Sequence of APC11/APC2 (Q9NYG5 whole entry): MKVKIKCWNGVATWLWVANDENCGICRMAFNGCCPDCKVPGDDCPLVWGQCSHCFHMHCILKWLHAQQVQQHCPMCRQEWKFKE
Sequence of APC11/APC2 (Q9UJX6 whole entry): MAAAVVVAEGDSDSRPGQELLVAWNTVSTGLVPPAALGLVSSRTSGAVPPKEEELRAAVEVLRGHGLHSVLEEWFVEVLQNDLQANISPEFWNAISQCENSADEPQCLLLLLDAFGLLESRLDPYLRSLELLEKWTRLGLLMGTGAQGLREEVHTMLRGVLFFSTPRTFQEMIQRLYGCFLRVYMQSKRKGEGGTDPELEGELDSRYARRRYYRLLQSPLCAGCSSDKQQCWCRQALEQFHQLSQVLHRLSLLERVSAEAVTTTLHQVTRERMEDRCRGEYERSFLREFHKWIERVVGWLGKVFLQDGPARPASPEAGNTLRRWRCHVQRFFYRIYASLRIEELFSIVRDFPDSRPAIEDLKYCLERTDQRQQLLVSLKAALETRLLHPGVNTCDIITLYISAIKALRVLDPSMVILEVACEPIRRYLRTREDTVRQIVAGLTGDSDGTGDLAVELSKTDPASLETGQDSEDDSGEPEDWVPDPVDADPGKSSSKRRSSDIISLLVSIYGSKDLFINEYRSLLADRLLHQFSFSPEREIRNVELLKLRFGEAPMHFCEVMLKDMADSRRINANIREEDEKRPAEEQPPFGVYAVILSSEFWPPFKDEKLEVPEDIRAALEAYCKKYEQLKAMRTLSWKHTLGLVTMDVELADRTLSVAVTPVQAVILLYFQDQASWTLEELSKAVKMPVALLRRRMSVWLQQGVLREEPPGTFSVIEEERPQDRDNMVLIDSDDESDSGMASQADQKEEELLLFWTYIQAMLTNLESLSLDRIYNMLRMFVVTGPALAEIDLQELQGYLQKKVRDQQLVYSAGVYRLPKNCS

Turning to `CC1CC(C)CN(c2ccc(S(=O)(=O)N3CC(C)CC(C)C3)c3nonc23)C1` (stereo not drawn) [compound 193, 4-(3,5-dimethylpiperidin-1-yl)-7-[(3,5-dimethylpiperidin-1-yl)sulfonyl]-2,1,3-benzoxadiazole], the IC50 against TRAF6/Uev1A/Ubc13, at APC11/APC2 and on ROC1/CUL1 was 1 to 20 µM each time.

As for `Cc1cccc(N2CCN(S(=O)(=O)c3ccc(Sc4cccc5cccnc45)c4nonc34)CC2)n1` [compound 196, 8-[(7-{[4-(6-methylpyndin-2-yl)piperazin-1-yl]sulfonyl}-2,1,3-benzoxadiazol-4-yl)thio]quinoline], the IC50 against TRAF6/Uev1A/Ubc13 was 1 to 20 µM; on ROC1/CUL1, ≥ 20 µM; in the test on A549 cells it was ≥ 20 µM; in the test on H1299 cells it was ≥ 20 µM.

Regarding `CC1CC(C)CN(S(=O)(=O)c2ccc(Sc3cccc4cccnc34)c3nonc23)C1` (stereo not drawn) [compound 197, 8-({7-[(3,5-dimethylpipendin-1-yl)sulfonyl]-2,1,3-benzoxadiazol-4-yl}thio)quinoline], the IC50 at TRAF6/Uev1A/Ubc13 was 1 to 20 µM; on ROC1/CUL1 it was ≥ 20 µM; in the test with A549 cells, 1 to 20 µM; with H1299 cells, 1 to 20 µM.

For the compound `Cc1ccc(N2CCN(S(=O)(=O)c3c(N4CCN(c5cccc(C)n5)CC4)ccc4nonc34)CC2)nc1` [compound 203, 5-[4-(6-methylpyridin-2-yl)piperazin-1-yl]-4-{[4-(5-methylpyridin-2-yl)piperazin-1-yl]sulfonyl}-2,1,3-benzoxadiazole], the IC50 against TRAF6/Uev1A/Ubc13 was 1 to 20 µM; in test [1] it was ≥ 20 µM; against ROC1/CUL1, ≥ 20 µM.

Take `N#Cc1ccc(N2CCN(c3ccc4nonc4c3S(=O)(=O)N3CCN(c4ccc(C#N)cn4)CC3)CC2)nc1` [compound 210, 6-[4-({5-[4-(5-cyanopyridin-2-yl)piperazin-1-yl]-2,1,3-benzoxadiazol-4-yl}sulfonyl)piperazin-1-yl]nicotinonitrile]: the IC50 at TRAF6/Uev1A/Ubc13 was ≥ 20 µM; on ROC1/CUL1, ≥ 20 µM; in the test with A549 cells it was ≥ 20 µM; in the test on H1299 cells, 1 to 20 µM.

For the compound `N#Cc1ccc(N2CCN(S(=O)(=O)c3c(Sc4cccc5cccnc45)ccc4nonc34)CC2)nc1` [compound 212, 6-(4-{[5-(quinolin-8-ylthio)-2,1,3-benzoxadiazol-4-yl]sulfonyl}piperazin-1-yl)nicotinonitrile], the IC50 on TRAF6/Uev1A/Ubc13 was 1 to 20 µM; on ROC1/CUL1, ≥ 20 µM; in the test with A549 cells, 1 to 20 µM; in the test on H1299 cells it was 1 to 20 µM.

In the case of `COC(=O)c1ccc(NS(=O)(=O)c2c(Sc3cccc4cccnc34)ccc3nonc23)cc1` [compound 215, methyl 4-({[5-(quinolin-8-ylthio)-2,1,3-benzoxadiazol-4-yl]sulfonyl}amino)benzoate], the IC50 was 1 to 20 µM at TRAF6/Uev1A/Ubc13, ≥ 20 µM in test [1] and ≥ 20 µM at ROC1/CUL1.

Take `O=[N+]([O-])c1ccc(Nc2ccc3[nH]ncc3c2)c2nonc12` [compound 222, N-1H-indazol-5-yl-7-nitro-2,1,3-benzoxadiazol-4-amine]: the IC50 against TRAF6/Uev1A/Ubc13 is 1 to 20 µM; against ROC1/CUL1, ≥ 20 µM; with A549 cells, ≥ 20 µM; in the test with H1299 cells, 1 to 20 µM.

Take `O=S(=O)(c1ccc(Sc2ccc(O)cc2)c2nonc12)N1CCC(O)(c2ccc(Cl)cc2)CC1` [compound 228, 4-(4-chlorophenyl)-1-({7-[(4-hydroxyphenyl)thio]-2,1,3-benzoxadiazol-4-yl}sulfonyl)piperidin-4-ol]: the IC50 was < 1 µM at TRAF6/Uev1A/Ubc13, ≥ 20 µM against ROC1/CUL1, ≥ 20 µM with A549 cells and ≥ 20 µM in the test with H1299 cells.

For the compound `O=[N+]([O-])c1ccc(Sc2ccc3ccccc3n2)c2nonc12` [compound 238, 2-[(7-nitro-2,1,3-benzoxadiazol-4-yl)thio]quinoline], the IC50 at TRAF6/Uev1A/Ubc13 is 1 to 20 µM; in test [1] it was ≥ 20 µM; on ROC1/CUL1, ≥ 20 µM.

On to `O=S(=O)(c1cccc2nsnc12)N1CCC2(CC1)OCc1ccccc12` [compound 257, 1′-(2,1,3-benzothiadiazol-4-ylsulfonyl)-3H-spiro[2-benzofiiran-1,4′-piperidine]], for which the IC50 on TRAF6/Uev1A/Ubc13, at ROC1/CUL1, with A549 cells and with H1299 cells was ≥ 20 µM each time.

Take `CN1CCN(S(=O)(=O)c2ccc(Sc3ccc4ccccc4n3)c3nonc23)CC1` [compound 268, 2-({7-[(4-methylpiperazin-1-yl)sulfonyl]-2,1,3-benzoxadiazol-4-yl}thio)quinoline]: the IC50 (against TRAF6/Uev1A/Ubc13; in test [1]; at ROC1/CUL1) was ≥ 20 µM each time.

Take `COc1ccc(Cl)cc1NS(=O)(=O)c1ccc(Cl)c2nonc12` [compound 269, 7-chloro-N-(5-chloro-2-methoxyphenyl)-2,1,3-benzoxadiazole-4-sulfonamide]: the values for the IC50 (on TRAF6/Uev1A/Ubc13; in test [1]; at ROC1/CUL1) were 1 to 20 µM, ≥ 20 µM and ≥ 20 µM, respectively.

On to `O=[N+]([O-])c1ccc(N2CCC3(CC2)OCc2ccccc23)c2nonc12` [compound 284, 1′-(7-nitro-2,1,3-benzoxadiazol-4-yl)-3H-spiro[2-benzofuran-1,4′-piperidine]], for which the IC50 against TRAF6/Uev1A/Ubc13 is 1 to 20 µM; against ROC1/CUL1 it was ≥ 20 µM; in the test with A549 cells, ≥ 20 µM; with H1299 cells, ≥ 20 µM.

As for `O=[N+]([O-])c1ccc(N2CCC(Sc3ccccn3)CC2)c2nonc12` [compound 288, 4-nitro-7-[4-(pyridin-2-ylthio)piperidin-1-yl]-2,1,3-benzoxadiazole], the IC50 on TRAF6/Uev1A/Ubc13 and against ROC1/CUL1 was ≥ 20 µM each time.

Take `O=S(=O)(c1ccc(Sc2ccc3ccccc3n2)c2nonc12)N1CCC(O)(c2ccc(Cl)cc2)CC1` [compound 485, 4-(4-chlorophenyl)-1-({7-(quinolin-2ylthio)-2,1,3-benzoxadiazol-4-yl}sulfonyl)piperidin-4-ol]: the IC50 on TRAF6/Uev1A/Ubc13 and on ROC1/CUL1 was ≥ 20 µM each time.

Turning to `O=C(Nc1cccc2nonc12)C1CN(c2ncccc2Cl)C1` [compound 486, N-(2,1,3-benzoxadiazol-4-yl)-1-(3-chloropyridin-2-yl) azetidine-3-carboxamide], the IC50 against TRAF6/Uev1A/Ubc13, against APC11/APC2 and on ROC1/CUL1 was 1 to 20 µM throughout.
